In patent publication EP3099166B1, “METHOD TO CONTROL ST[…] SEPTORIA TRITICI” (priority 2014, dated 2015):
Read-outs that look alike come from different tables or passages of the source.

How the values were obtained:
Septoria tritici [1] = assay: Glasshouse trial on wheat, curative (K4) application (Example 2); format: in vivo; conditions: for % Efficacy: wheat, R12 isolates, G143A, 4 weeks after application
Description: (§1) The trials were conducted under glasshouse conditions. Wheat was planted and grown under standard conditions with adequate supply of water and nutrients. At BBCH 11, an application of the test compounds was made. Fungicides were applied curatively 4 days after inoculation (K4) with different rates. The Septoria isolates used for inoculation were classified "R12" according their cyp51 haplotype (less sensitive to triazoles due to V136A, 1381V, Y461S/H and S524T mutation in cyp51 gene) and resistant to strobilurins due to G143A mutation in cytochrome b gene.
(§2) Disease levels were assessed by evaluating the average percentage of diseased leaf area 4 weeks after application.
(§3) The disease levels were converted into efficacies. An efficacy of 0 means that the level of the treated plants corresponds to that of the untreated control plants; an efficacy of 100 means that the treated plants had no disease at all.

Septoria tritici [2] = assay: Glasshouse trial on wheat, preventive (P1) or curative (K4) application (Example 1); format: in vivo; conditions: Zymoseptoria tritici
Description: as §1, with “applied preventively (1 day before inoculation, P1) or” for “applied”, “curatively (4” for “curatively 4”, “after inoculation, K4) and” for “after inoculation (K4)”, “V136A, I381V,” for “V136A, 1381V,”
as §2, §3

[3] = Zymoseptoria tritici, 672 h, read-out: % Efficacy

CO/C=C(/C(=O)OC)c1ccccc1COc1cccc(C(F)(F)F)n1 [Picoxystrobin, picoxystrobin]
% Efficacy (Septoria tritici [1]; 83 g a.i./ha, curative (K4, 4 days after inoculation)): 0%
% Efficacy (Septoria tritici [1]; 250 g a.i./ha, curative (K4)): 7%

CCCC1COC(Cn2cncn2)(c2ccc(Cl)cc2Cl)O1 (stereo not drawn) [Propiconazole, propiconazole]
Percent disease control efficacy at 33 g/ha (Septoria tritici [2]; 672 h, read-out: % Efficacy, 33 g a.i./ha, curative (K4), R12 isolates, G143A, 4 weeks after application): 7%
Percent disease control efficacy at 33 g/ha (Septoria tritici [2]; 672 h, read-out: % Efficacy, 33 g a.i./ha, preventative (P1), R12 isolates, G143A, 4 weeks after application): 10%
Percent disease control efficacy at 125 g/ha (Septoria tritici [2]; 672 h, read-out: % Efficacy, 125 g a.i./ha, preventative (P1), R12 isolates, G143A, 4 weeks after application): 40%
Emax at 33 g/ha (Septoria tritici [1]; [3]): 7%
Emax at 125 g/ha (Septoria tritici [1]; [3]): 20%

OC(Cc1ccccc1Cl)(Cn1nc[nH]c1=S)C1(Cl)CC1 (stereo not drawn) [Prothioconazole, prothioconazole]
Percent disease control efficacy at 67 g/ha (Septoria tritici [2]; 672 h, read-out: % Efficacy, 67 g a.i./ha, curative (K4), R12 isolates, G143A, 4 weeks after application): 7%
Percent disease control efficacy at 67 g/ha (Septoria tritici [2]; 672 h, read-out: % Efficacy, 67 g a.i./ha, preventative (P1), R12 isolates, G143A, 4 weeks after application): 10%
Emax at 67 g/ha (Septoria tritici [1]; [3]): 7%

COC(=O)N(OC)c1ccccc1COc1ccn(-c2ccc(Cl)cc2)n1 [Pyraclostrobin, pyraclostrobin]
Percent disease control efficacy at 250 g/ha (Septoria tritici [2]; 672 h, read-out: % Efficacy, 250 g a.i./ha, preventative (P1), R12 isolates, G143A, 4 weeks after application): 51%
Percent disease control efficacy at 83 g/ha (Septoria tritici [2]; read-out: % Efficacy, 83 g a.i./ha, curative (K4, 4 days after inoculation), R12 isolates, G143A, assessed 4 weeks after application): 10%
